Results published in patent US12144864B2, “Tubulysins and protein-tubulysin conjugates” (Regeneron Pharmaceuticals, Inc., priority 2018, dated 2024).
Like-named read-outs stand apart in the source and are kept apart here.

Experiments:
C4-2 cells = assay: Cell-based killing assay of payloads (CellTiter-Glo), C4-2 cells; set-up: species or system human; settings: 5-day incubation; for IC50: Homo sapiens, C4-2, 120 h, average ± SD where replicates; for C4-2 % Kill: at maximum concentration tested (100 − % viable cells)
Method: (§1) To test the ability of the disclosed tubulysin payloads to kill human cell lines, an in vitro cytotoxicity assay was performed. In vitro cytotoxicity of the disclosed payloads, as well as reference compounds, were evaluated using the CellTiter-Glo Assay Kit (Promega, Cat #G7573), in which the quantity of ATP present is used to determine the number of viable cells in culture. For the assay, C4-2, HEK293, or T47D cells were seeded at 4000 cells/well on Nunclon white 96-well plates in complete growth medium (DME high glucose:Ham's F12 at 4:1, 10% FBS, 100 units/ml Penicillin, 100 ug/ml streptomycin, 53 ug/ml glutatmine, 10 ug/ml insulin, 220 ng/ml biotin, 12.5 pg/ml T3, 12.5 ug/ml Adenine, 4 ug/ml transferrin for C42 cells; DME high glucose, 10% FBS, 100 units/ml Penicillin, 100 ug/ml streptomycin, 53 ug/ml glutatmine for HEK293; RPMI, 10% FBS, 100 units/ml Penicillin, 100 ug/ml streptomycin, 53 ug/ml glutatmine, 10 ug/ml insulin, 10 mM HEPEs, 200 nM Sodium Pyruvate for T47D cells) and grown overnight at 37° C. in 5% CO2. For cell viability curves, 1:3 serially diluted payloads were added to the cells at final concentrations ranging from 100 nM to […], including a no treatment control group, and were then incubated for 5 days. After the 5-day incubation, cells were incubated at room temperature with 100 μL of CellTiter-Glo reagents for 10 minutes. Relative luminescence units (RLU) were determined on a Victor plate reader (PerkinElmer). The IC50 values were determined from a four-parameter logistic equation over a 10-point response curve (GraphPad Prism). All IC50 values are expressed in molar (M) concentration. The percent cell killing (% kill) at the maximum concentration tested was estimated from the following formula (100−% viable cells). Averages±standard deviation (SD) are included where replicate experiments were performed.

HCT15 cells = assay: cells; type: cell-based, human; settings: HCT15 cells; for HCT-15 + verapamil % Kill / HCT-15 % Kill: maximum % cell killing
Method: as §1
In vitro cytotoxicity of the disclosed payloads as well as reference compounds were evaluated similarly as described above except using 1000 HCT15 cells, a colorectal carcinoma cell line, in growth medium (RPMI, 10% FBS, 100 units/ml Penicillin, 100 ug/ml streptomycin, 53 ug/ml glutatmine) with or without 5 ug/mL of Verapamil.

HCT-15 cells = assay: Cytotoxicity in panel of MDR cell lines, HCT-15 (72 h and 144 h); type: cell-based, human; settings: for IC50: Homo sapiens
Method: as §1
(§2) To further test the ability of the disclosed tubulysin payloads, a cytotoxicity assay was performed using a panel of multidrug resistant (MDR) cell lines. In vitro cytotoxicity of the disclosed payloads as well as reference compounds were similarly evaluated as described above except using HCT-15 cells, a colorectal carcinoma cell line; H69AR, a doxorubicin resistant MDR derivative of the small cell lung cancer carcinoma cell line NCI-H69; MES-SA/MX2, a mitoxantrone resistant MDR derivative of the uterine sarcoma cell line MES-SA; and HL60/MX2, a mitoxantrone resistant MDR derivative of the acute promyelocytic leukemia cell line HL60. In these assays, cytotoxicity was evaluated in normal growth media (RPMI, 10% FBS, 100 units/ml Penicillin, 100 ug/ml streptomycin, and 53 ug/ml glutatmine for HCT-15 and HL60/MX2; RPMI, 20% FBS, 100 units/ml Penicillin, 100 ug/ml streptomycin, and 53 ug/ml glutatmine for H69-AR; Waymouths's:McCoy's (1:1), 10% FBS, 100 units/ml Penicillin, 100 ug/ml streptomycin, and 53 ug/ml glutatmine for MES-SA/MX2) with 1000 cells per well following 72 h and 144 h incubation with payloads.

H69AR cells = assay: Cytotoxicity in panel of MDR cell lines, H69AR (72 h and 144 h); type: cell-based, human; settings: for IC50: Homo sapiens
Method: as §1, §2

HL60/MX2 cells = assay: Cytotoxicity in panel of MDR cell lines, HL60/MX2 (72 h and 144 h); type: cell-based, human; settings: for IC50: Homo sapiens
Method: as §1, §2

MES-SA/MX2 cells = assay: Cytotoxicity in panel of MDR cell lines, MES-SA/MX2 (72 h and 144 h); type: cell-based, human; settings: for IC50: Homo sapiens
Method: as §1, §2

[1] = with 5 ug/mL Verapamil, read-out: HCT-15 + verapamil IC50
[2] = Homo sapiens, HCT-15, without Verapamil, read-out: HCT-15 IC50
[3] = 72 h incubation, read-out: HCT-15 IC50 72 h
[4] = 144 h incubation, read-out: HCT-15 IC50 144 h
[5] = 72 h incubation, read-out: H69AR IC50 72 h
[6] = 144 h incubation, read-out: H69AR IC50 144 h
[7] = 72 h incubation, read-out: HL60/MX2 IC50 72 h
[8] = 144 h incubation, read-out: HL60/MX2 IC50 144 h
[9] = 72 h incubation, read-out: MES-SA/MX2 IC50 72 h
[10] = 144 h incubation, read-out: MES-SA/MX2 IC50 144 h

Row | Compound | IC50 (C4-2 cells) | C4-2 % Kill (C4-2 cells) | HCT-15 + verapamil % Kill (HCT15 cells; with 5 ug/mL Verapamil) | IC50 (HCT15 cells; [1]) | HCT-15 % Kill 72 h (HCT-15 cells; 72 h incubation) | HCT-15 % Kill 144 h (HCT-15 cells; 144 h incubation) | IC50 (HCT-15 cells; [3]) | IC50 (HCT-15 cells; [4]) | H69AR % Kill 72 h (H69AR cells; 72 h incubation) | H69AR % Kill 144 h (H69AR cells; 144 h incubation) | IC50 (H69AR cells; [5]) | IC50 (H69AR cells; [6]) | HL60/MX2 % Kill 72 h (HL60/MX2 cells; 72 h incubation) | HL60/MX2 % Kill 144 h (HL60/MX2 cells; 144 h incubation) | IC50 (HL60/MX2 cells; [7]) | IC50 (HL60/MX2 cells; [8]) | MES-SA/MX2 % Kill 72 h (MES-SA/MX2 cells; 72 h incubation) | MES-SA/MX2 % Kill 144 h (MES-SA/MX2 cells; 144 h incubation) | IC50 (MES-SA/MX2 cells; [9]) | IC50 (MES-SA/MX2 cells; [10]) | also measured
1 | CCCCCCON(C(=O)[C@@H](NC(=O)[C@H]1CCCCN1C)[C@@H](C)CC)[C@H](C[C@@H](OC(=O)NC)c1nc(C(=O)N[C@@H](Cc2ccc(O)cc2)C[C@H](C)C(=O)O)cs1)C(C)C [VIa, (2S,4R)-5-(4-Hydroxyphenyl)-4-(2-((5R,7R)-7-isopropyl-8-((2S,3S)-3-methyl-2-((R)-1-methylpiperidine-2-carboxamido)pentanoyl)-3-oxo-4,9-dioxa-2,8-diazapentadecan-5-yl)thiazole-4-carboxamido)-2-methylpentanoic acid] | 1.86 nM | 94.1% | 98.4 ± 0.7% | 0.255 nM | 94% | 98.9% | 5.42 nM | 7.17 nM | 83.5% | 91.6% | 16 nM | 80.1 nM |  |  |  |  |  |  |  |  | HCT-15 % Kill (HCT15 cells; without Verapamil): 97 ± 1.9%; IC50 (HCT15 cells; [2]): 5.8 nM
2 | CCCC(=O)OCN(C(=O)[C@@H](NC(=O)[C@H]1CCCCN1C)[C@@H](C)CC)[C@H](C[C@@H](OC(C)=O)c1nc(C(=O)N[C@@H](Cc2ccc(O)cc2)C[C@H](C)C(=O)O)cs1)C(C)C [reference compound] | 0.109 nM | 96.4% | 99.1% | 0.128 nM |  |  |  |  |  |  |  |  | 98% | 100% | < 0.015 nM | < 0.015 nM | 98.6% | 99.9% | 0.573 nM | 1.33 nM | HCT-15 % Kill (HCT15 cells; without Verapamil): 99.1%; IC50 (HCT15 cells; [2]): 0.509 nM
3 | CCCCCCN(C(=O)[C@@H](NC(=O)[C@H]1CCCCN1C)[C@@H](C)CC)[C@H](C[C@@H](OC(C)=O)c1nc(C(=O)N[C@@H](Cc2ccc(N)c(F)c2)CC(C)(C)C(=O)O)cs1)C(C)C [IVvB, 4-({2-[(1R,3R)-1-(Acetyloxy)-3-[(2S,3S)—N-hexyl-3-methyl-2-{[(2R)-1-methylpiperidin-2-yl]formamido}pentanamido]-4-methylpentyl]-1,3-thiazol-4-yl}formamido)-5-(4-amino-3-fluorophenyl)-2,2-dimethylpentanoic acid] | 0.0215 nM | 94.6% | 97.7% | 0.015 nM | 97.7% | 99.6% | < 0.015 nM | 0.0228 nM | 96.9% | 99.1% | 0.0599 nM | 0.158 nM | 98.2% | 99.8% | < 0.015 nM | < 0.015 nM | 99.1% | 99.9% | 0.0456 nM | 0.0658 nM | HCT-15 % Kill (HCT15 cells; without Verapamil): 97.3%; IC50 (HCT15 cells; [2]): 0.025 nM
4 | CCCCCCN(C(=O)[C@@H](NC(=O)[C@H]1CCCCN1C)[C@@H](C)CC)[C@H](C[C@@H](OC(C)=O)c1nc(C(=O)NC(Cc2ccc(F)c(NC)c2)CC(C)(C)C(=O)O)cs1)C(C)C (stereo partly drawn) [IVt, 4-(2-((1R,3R)-1-acetoxy-3-((2S,3S)—N-hexyl-3-methyl-2-((R)-1-methylpiperidine-2-carboxamido)pentanamido)-4-methylpentyl)thiazole-4-carboxamido)-5-(4-fluoro-3-(methylamino)phenyl)-2,2-dimethylpentanoic acid] | 0.11 nM | 94.2% |  |  | 97.6% | 99.8% | 0.143 nM | 0.18 nM | 96.3% | 99.3% | 0.486 nM | 0.819 nM | 98.4% | 100% | < 0.015 nM | < 0.015 nM | 99.3% | 100% | 0.447 nM | 0.74 nM | 
5 | CCCCCCN(C(=O)[C@@H](NC(=O)[C@H]1CCCCN1C)[C@@H](C)CC)[C@H](C[C@@H](OC(C)=O)c1nc(C(=O)NC(Cc2ccc(F)c(N)c2)CC(C)(C)C(=O)O)cs1)C(C)C (stereo partly drawn) [IVu, 4-({2-[(1R,3R)-1-(Acetyloxy)-3-[(2S,3S)—N-hexyl-3-methyl-2-{[(2R)-1-methylpiperidin-2-yl]formamido}pentanamido]-4-methylpentyl]-1,3-thiazol-4-yl}formamido)-5-(3-amino-4-fluorophenyl)-2,2-dimethylpentanoic acid] | 0.114 nM | 93.9% |  |  | 97.9% | 99.8% | 0.134 nM | 0.242 nM | 96.4% | 99% | 0.634 nM | 1.04 nM | 98% | 99.9% | < 0.015 nM | < 0.015 nM | 98.8% | 100% | 0.535 nM | 1.21 nM | 
